Laboratory results: patent US12492188B2, “1H-benzo[D]imidazole derivatives as TLR9 inhibitors for the treatment of fibrosis” (BRISTOL-MYERS SQUIBB COMPANY, priority 2020, dated 2025)
Where two headings read alike, the source gives them in different places.

Experiments:
Format in all cases: cell-based
human TLR7 = biological target: T1, human TLR7 (Homo sapiens, UniProt Q9NYK1); assay: TLR7 inhibition reporter assay (HEK-Blue cells, secreted embryonic alkaline phosphatase reporter); conditions: HEK-Blue cells overexpressing human TLR7, stimulated with gardiquimod 7.5 μM; read-out: TLR 7 IC50
T1 construct: host or cells: HEK-Blue cells (HEK293-derived reporter line)
T1 sequence (Q9NYK1 27-1049): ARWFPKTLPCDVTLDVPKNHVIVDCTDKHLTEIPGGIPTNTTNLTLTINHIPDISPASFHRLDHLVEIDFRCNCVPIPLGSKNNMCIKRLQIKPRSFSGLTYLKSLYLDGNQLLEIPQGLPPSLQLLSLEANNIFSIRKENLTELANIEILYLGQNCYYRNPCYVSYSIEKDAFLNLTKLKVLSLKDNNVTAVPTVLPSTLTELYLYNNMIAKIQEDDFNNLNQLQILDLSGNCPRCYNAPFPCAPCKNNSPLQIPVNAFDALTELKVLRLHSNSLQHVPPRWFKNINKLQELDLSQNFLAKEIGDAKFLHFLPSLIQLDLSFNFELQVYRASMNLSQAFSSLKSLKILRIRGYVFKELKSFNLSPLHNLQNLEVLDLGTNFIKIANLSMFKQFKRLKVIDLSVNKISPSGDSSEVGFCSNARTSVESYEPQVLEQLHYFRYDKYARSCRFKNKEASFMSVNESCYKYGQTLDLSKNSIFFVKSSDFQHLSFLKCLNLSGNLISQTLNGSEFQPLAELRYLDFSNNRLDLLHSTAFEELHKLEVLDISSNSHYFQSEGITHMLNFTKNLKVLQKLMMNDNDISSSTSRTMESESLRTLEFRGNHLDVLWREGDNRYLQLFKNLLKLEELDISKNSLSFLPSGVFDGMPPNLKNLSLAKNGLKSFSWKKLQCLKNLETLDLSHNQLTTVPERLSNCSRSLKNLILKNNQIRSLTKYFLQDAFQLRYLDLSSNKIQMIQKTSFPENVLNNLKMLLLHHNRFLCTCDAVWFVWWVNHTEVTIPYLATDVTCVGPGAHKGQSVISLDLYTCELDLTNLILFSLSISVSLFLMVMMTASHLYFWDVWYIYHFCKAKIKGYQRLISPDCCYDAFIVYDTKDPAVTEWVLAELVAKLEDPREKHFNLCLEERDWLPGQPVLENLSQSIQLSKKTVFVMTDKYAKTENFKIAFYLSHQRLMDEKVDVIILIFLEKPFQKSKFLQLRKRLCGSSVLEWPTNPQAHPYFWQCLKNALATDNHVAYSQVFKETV
In short: (§1)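 Steps: seed receptor-specific HEK-Blue cells; add compound, 0.05 nM–50 μM; wait 30 min at room temperature; add final gardiquimod 7.5 μM, R848 15.9 μM or ODN2006 5 nM for TLR7, TLR8 or TLR9; incubate 22 h at 37 °C; detect NF-κB/AP-1-driven SEAP.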

human TLR8 = biological target: T2, human TLR8 (Homo sapiens, UniProt Q9NR97); assay: TLR8 inhibition reporter assay (HEK-Blue cells, secreted embryonic alkaline phosphatase reporter); conditions: HEK-Blue cells overexpressing human TLR8, stimulated with R848 15.9 μM; read-out: TLR 8 IC50
T2 construct: host or cells: HEK-Blue cells (HEK293-derived reporter line)
T2 sequence (Q9NR97 27-1041): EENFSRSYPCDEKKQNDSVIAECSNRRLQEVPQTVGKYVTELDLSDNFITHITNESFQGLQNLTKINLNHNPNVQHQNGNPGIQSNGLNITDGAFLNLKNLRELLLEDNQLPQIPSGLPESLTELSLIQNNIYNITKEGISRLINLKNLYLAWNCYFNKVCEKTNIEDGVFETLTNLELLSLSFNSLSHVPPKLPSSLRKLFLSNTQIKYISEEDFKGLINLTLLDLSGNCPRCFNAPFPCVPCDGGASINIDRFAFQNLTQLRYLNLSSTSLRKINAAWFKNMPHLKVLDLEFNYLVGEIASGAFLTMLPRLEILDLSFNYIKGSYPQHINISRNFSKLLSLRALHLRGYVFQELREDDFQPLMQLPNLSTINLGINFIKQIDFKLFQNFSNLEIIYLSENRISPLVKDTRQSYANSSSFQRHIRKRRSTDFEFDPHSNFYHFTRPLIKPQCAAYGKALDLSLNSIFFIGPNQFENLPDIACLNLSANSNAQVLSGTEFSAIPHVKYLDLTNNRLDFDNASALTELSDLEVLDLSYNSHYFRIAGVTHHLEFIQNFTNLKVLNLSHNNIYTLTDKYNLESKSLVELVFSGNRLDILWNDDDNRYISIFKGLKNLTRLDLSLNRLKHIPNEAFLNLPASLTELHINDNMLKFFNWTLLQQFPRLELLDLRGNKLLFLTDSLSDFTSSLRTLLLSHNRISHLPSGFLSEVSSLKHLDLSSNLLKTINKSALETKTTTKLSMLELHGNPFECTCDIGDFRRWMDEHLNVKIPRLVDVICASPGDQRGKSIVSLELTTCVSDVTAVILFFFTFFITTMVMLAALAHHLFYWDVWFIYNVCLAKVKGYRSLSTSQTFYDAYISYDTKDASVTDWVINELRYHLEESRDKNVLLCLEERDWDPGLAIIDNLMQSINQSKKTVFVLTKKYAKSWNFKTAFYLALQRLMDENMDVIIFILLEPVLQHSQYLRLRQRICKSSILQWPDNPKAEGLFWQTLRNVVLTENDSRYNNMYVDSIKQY
In short: as §1

human TLR9 = biological target: T3, human TLR9 (Homo sapiens, UniProt Q9NR96); assay: TLR9 inhibition reporter assay (HEK-Blue cells, secreted embryonic alkaline phosphatase reporter)
T3 construct: host or cells: HEK-Blue cells (HEK293-derived reporter line)
T3 sequence (Q9NR96 26-1032): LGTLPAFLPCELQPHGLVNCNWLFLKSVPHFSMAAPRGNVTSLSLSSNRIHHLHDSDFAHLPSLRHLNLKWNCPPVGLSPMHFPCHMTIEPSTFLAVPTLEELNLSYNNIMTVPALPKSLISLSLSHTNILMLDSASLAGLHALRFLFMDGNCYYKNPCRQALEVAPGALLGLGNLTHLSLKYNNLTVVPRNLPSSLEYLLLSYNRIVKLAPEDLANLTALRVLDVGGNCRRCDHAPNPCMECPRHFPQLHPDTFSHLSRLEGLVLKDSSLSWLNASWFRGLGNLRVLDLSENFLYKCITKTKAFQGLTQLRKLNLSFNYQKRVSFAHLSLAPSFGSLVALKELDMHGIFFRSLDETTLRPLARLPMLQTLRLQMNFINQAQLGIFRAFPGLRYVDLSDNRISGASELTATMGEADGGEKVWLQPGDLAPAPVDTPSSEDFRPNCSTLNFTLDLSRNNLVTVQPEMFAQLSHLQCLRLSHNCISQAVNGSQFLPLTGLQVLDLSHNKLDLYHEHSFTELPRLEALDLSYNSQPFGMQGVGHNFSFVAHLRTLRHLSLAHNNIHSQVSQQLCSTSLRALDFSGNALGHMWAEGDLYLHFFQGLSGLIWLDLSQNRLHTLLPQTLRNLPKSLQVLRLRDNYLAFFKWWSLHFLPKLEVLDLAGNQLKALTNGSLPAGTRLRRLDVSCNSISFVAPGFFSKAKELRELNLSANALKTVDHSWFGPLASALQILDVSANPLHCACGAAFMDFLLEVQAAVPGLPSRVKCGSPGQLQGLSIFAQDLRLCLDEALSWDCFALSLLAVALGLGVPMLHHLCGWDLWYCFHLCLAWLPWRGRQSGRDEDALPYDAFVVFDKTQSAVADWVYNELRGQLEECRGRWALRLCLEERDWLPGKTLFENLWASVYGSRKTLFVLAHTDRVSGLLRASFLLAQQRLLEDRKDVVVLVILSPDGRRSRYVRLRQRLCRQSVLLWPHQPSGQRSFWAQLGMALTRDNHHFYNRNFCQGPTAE
In short: as §1

[1] = HEK-Blue cells overexpressing human TLR9, stimulated with ODN2006 5 nM, read-out: TLR 9 IC50

Row | IC50 (human TLR7) [µM] | IC50 (human TLR8) [µM] | IC50 (human TLR9) [µM] | IC50 (human TLR9; [1]) [µM] | SMILES
1 | > 50 | > 50 | 0.27 | 0.165 | Cn1c(-c2ccc(S(C)(=O)=O)cc2)nc2cc(C3CCN(C4CC5CCC(C4)N5C4CCOCC4)CC3)cc(F)c21 (centres unmarked) [Example 211, 7-fluoro-1-methyl-2-(4-(methylsulfonyl)phenyl)-5-(1-(8-(tetrahydro-2H-pyran-4-yl)-8-azabicyclo[3.2.1]octan-3-yl)piperidin-4-yl)-1H-benzo[d]imidazole]
2 | 7.8 | > 50 | 0.35 | 0.354 | CC(C)CN1CCC(N2CCC(c3cc4c(cc3F)nc(-c3ccc(S(C)(=O)=O)cc3)n4C)CC2)CC1 [Example 221, 5-fluoro-6-(1′-isobutyl-[1,4′-bipiperidin]-4-yl)-1-methyl-2-(4-(methylsulfonyl)phenyl)-1H-benzo[d]imidazole]
3 | 35.6 | > 50 | 0.13 | 0.133 | Cn1c(-c2ccc(S(C)(=O)=O)cc2)nc2cc(F)c(C3CCN(C4CCN(C5CC5)CC4)CC3)cc21 [Example 222, 6-(1′-cyclopropyl-[1,4′-bipiperidin]-4-yl)-5-fluoro-1-methyl-2-(4-(methylsulfonyl)phenyl)-1H-benzo[d]imidazole]
4 | 25.7 | > 50 | 0.19 | 0.192 | Cn1c(-c2ccc(S(C)(=O)=O)cc2)nc2cc(F)c(C3CCN(C4CCN(CC5CC5)CC4)CC3)cc21 [Example 224, 6-(1′-(cyclopropylmethyl)-[1,4′-bipiperidin]-4-yl)-5-fluoro-1-methyl-2-(4-(methylsulfonyl)phenyl)-1H-benzo[d]imidazole]
5 | > 50 | > 50 | 0.9 | 0.898 | Cn1c(-c2ccc(S(C)(=O)=O)cc2)nc2cc(F)c(C3CCN(C4CCN(C5CCOCC5)CC4)CC3)cc21 [Example 226, 5-fluoro-1-methyl-2-(4-(methylsulfonyl)phenyl)-6-(1′-(tetrahydro-2H-pyran-4-yl)-[1,4′-bipiperidin]-4-yl)-1H-benzo[d]imidazole]
6 | 27.4 | > 50 | 0.41 | 0.407 | COCCN1CCC(N2CCC(c3cc4c(cc3F)nc(-c3ccc(S(C)(=O)=O)cc3)n4C)CC2)CC1 [Example 227, 5-fluoro-6-(1′-(2-methoxyethyl)-[1,4′-bipiperidin]-4-yl)-1-methyl-2-(4-(methylsulfonyl)phenyl)-1H-benzo[d]imidazole]

The remaining lines, values behind:

Row | SMILES | IC50 (human TLR7) [µM] | IC50 (human TLR8) [µM] | IC50 (human TLR9) [µM] | IC50 (human TLR9; [1]) [µM]
7 | Cn1c(-c2ccc(S(C)(=O)=O)cc2)nc2cc(C3CCN(C4CC5CCC(C4)N5C4CCOCC4)CC3)cc(F)c21 (centres unmarked) [Example 212, 7-fluoro-1-methyl-2-(4-(methylsulfonyl)phenyl)-5-(1-(8-(tetrahydro-2H-pyran-4-yl)-8-azabicyclo[3.2.1]octan-3-yl)piperidin-4-yl)-1H-benzo[d]imidazole] | > 50 | > 50 | 0.46 | 0.456
8 | Cn1c(-c2ccc(S(C)(=O)=O)cc2)nc2cc(C3CCN(C4CC5CCC(C4)N5CC4CC4)CC3)cc(F)c21 (centres unmarked) [Example 217, 5-(1-(8-(cyclopropylmethyl)-8-azabicyclo[3.2.1]octan-3-yl)piperidin-4-yl)-7-fluoro-1-methyl-2-(4-(methylsulfonyl)phenyl)-1H-benzo[d]imidazole] | 12.9 | > 50 | 0.13 | 0.125
9 | Cn1c(-c2ccc(S(C)(=O)=O)cc2)nc2cc(C3CCN(C4CC5CCC(C4)N5CC4CC4)CC3)cc(F)c21 (centres unmarked) [Example 218, 5-(1-(8-(cyclopropylmethyl)-8-azabicyclo[3.2.1]octan-3-yl)piperidin-4-yl)-7-fluoro-1-methyl-2-(4-(methylsulfonyl)phenyl)-1H-benzo[d]imidazole] | 5.6 | 48.7 | 0.14 | 0.14
10 | Cn1c(-c2ccc(S(C)(=O)=O)cc2)nc2cc(F)c(C3CCN(C4CCN(C5CCC5)CC4)CC3)cc21 [Example 223, 6-(1′-cyclobutyl-[1,4′-bipiperidin]-4-yl)-5-fluoro-1-methyl-2-(4-(methylsulfonyl)phenyl)-1H-benzo[d]imidazole] | > 50 | > 50 | 0.29 | 0.29
11 | Cn1c(-c2ccc(S(C)(=O)=O)cc2)nc2cc(F)c(C3CCN(C4CCN(C5COC5)CC4)CC3)cc21 [Example 225, 5-fluoro-1-methyl-2-(4-(methylsulfonyl)phenyl)-6-(1′-(oxetan-3-yl)-[1,4′-bipiperidin]-4-yl)-1H-benzo[d]imidazole] | > 50 | > 50 | 5.4 | 5.35
